# Patent US20210345614A1, “APPLICATION OF 7-CARBOXYBENZO[1,2,3]THIADIAZOLE AMIDES AS PLANT STIMULANTS” (ADAM MICKIEWICZ UNIVERSITY FOUNDATION, priority 2015, published 2021)
# Several values for one entry are separate records, joined by “and”; a condition that tells them apart may be missing. Equal values may be shown once.
# How the values were obtained:
# [1] = tested on: Pyrenophora teres; assay: Field test on barley, fungal infection by Pyrenophora teres; format: in vivo, Hordeum vulgare (spring); conditions: Example 27: BTHWA 20 mg/L with Trend 90 EC, six foliar applications at 10 days intervals; harvested 13 days after last treatment
# Description: The test was conducted on a variety of barley Hordeum vulgare (spring). As such, six applications of the active substance solution was made. The study was conducted on fields of about 25 m^2 in quadruplicate for each combination tested. […] (with the addition of commercial adjuvant) followed by treatment with common fungicide (tebukonazole in formulation containing 250 g of active substance to be applied per 1 ha) in reducing infection of fungi Pyrenophora teres in barley (Hordeum vulgare (spring)) was performed. […] Six applications of the active substance BTHWA solution were made. As a control, one application of fungicide was performed at the time as indicated on the product label. The study was conducted on fields of about 25 m^2 in quadruplicate for each combination tested. […] The fungicide was applied in an amount of 33% its recommended dose (83 g/ha). Six applications of the active substance BTHWA solution were made. As a control, one application of fungicide was performed at the time as indicated on the product label. The study was conducted on fields of about 25 m^2 in quadruplicate for each combination tested.
# [2] = tested on: Tobacco plants; assay: Protection against abiotic stress in tobacco caused by lack of water; format: in vivo; conditions: watered twice 20 mg/L; 10 days after cessation of watering
# Description: Tobacco plants at the stage of 3 developed leaves were watered twice with BTHWA at concentration of 20 mg/L, at a weekly intervals. Control […] plants were watered with water only. A week after the second treatment, plants were exposed to a stress factor in the form of lack of access to water.
# [3] = tested on: tobacco mosaic virus (TMV); assay: BTHWA effect on the infectivity of tobacco mosaic virus (virus pre-incubated with compound, necrotic spots on tobacco leaves); format: in vivo, tobacco cv. xanthi; conditions: TMV approx. 3 μg/ml incubated 30 min with BTHWA 40 mg/L 1:1; after 5 days
# Description: (§1) Purified tobacco mosaic virus (TMV) at a concentration of approx. 3 μg/ml was mixed with N-methyl-N-methoxy-7-carboxybenzo[1,2,3]thiadiazole amide (BTHWA) formulation (concentration 40 mg/L) in a 1:1 volume ratio and incubated for 30 min at room temperature (treated leaves). The control was TMV incubated in water. Both virus suspensions were used to mechanically infect tobacco leaves cv. xanthi. Local necrotic spots (hypersensitivity, local infection) produced on the tobacco leaves were measured.
# [4] = tested on: powdery mildew fungi; assay: BTHWA effect on the infectivity of fungi, growth in nutrition medium; format: cell-based; conditions: BTHWA 40 mg/L formulation, after 2 days
# Description: as §1
# The procedure as described in Example 1 was followed, however, a powdery mildew fungi was used, which was then incubated in a nutrition medium.
# [5] = tested on: Rhynchosporium secalis; assay: Field test on barley, fungal infection by Rhynchosporium secalis; format: in vivo, Hordeum vulgare (spring); conditions: Example 28: BTHWA 20 mg/L with Trend 90 EC, six foliar applications at 10 days intervals; harvested 13 days after last treatment
# Description: The test was on a variety of barley Hordeum vulgare (spring). There were six applications of the active substance solution. The study was conducted on fields of about 25 m^2 in quadruplicate for each combination tested.
# [6] = tested on: Pseudomonas syringe pv. tomato; assay: Protection of tomato against bacterial infection of Pseudomonas syringe pv. tomato; format: in vivo, Tomato Lycopersicon esculentum Mill; conditions: sprayed twice, 20 mg/L
# Description: Tomato plants in the phase of first pair of developed true leaves were watered twice with BTHWA at a concentration of 20 mg/L, at a weekly interval. Control tomato plants were treated with water only. One week after the second treatment Pseudomonas syringe pv. tomato bacterial suspension at a concentration of 10^5 CFU/cm^3 was introduced to the leaf using an insulin syringe (without a needle). Bacterial suspension was prepared from two-day Pseudomonas syringe pv. tomato culture on solid medium. Protection against biotic stress was evaluated based on the amount of bacterial growth in the leaves at the point of introduction followed by the formation of necrotic spots, and this compared with the control. […] The procedure as described in Example 16 was followed, however, the plants were sprayed. BTHWA at the concentration of 20 mg/L was applied twice by spraying.
# [7] = tested on: Radish seeds; assay: Germination of radish seeds; format: in vivo; conditions: seeds in 10 mg/L solution, after 2 days
# Description: Radish seeds were placed in water-containing solution of BTHWA at a concentration of 10 mg/L or water only (control samples).
# [8] = tested on: Pseudomonas syringe pv. tomato; assay: BTHWA effect on the infectivity of bacteria, growth in Mueller-Hinton broth; format: cell-based; conditions: BTHWA 40 mg/L formulation, after 2 days
# Description: as §1
# The procedure as described in Example 1 was followed, however, the bacterium Pseudomonas syringe pv. tomato was used. The suspensions formed were incubated in a Mueller-Hinton broth nutrition medium. After 2 days, the concentration of bacteria on the treated plates was compared to the control.
smiles,measurement,setting,value
"CON(C)C(=O)c1cccc2nnsc12 [BTHWA, N-methyl-N-methoxy-7-carboxybenzo[1,2,3]thiadiazole amide]",% of infection,[1],17% and 17.50%
same,total mass of the untreated plants lower than the weight of the treated plants,[2],13%
same,difference in number of necrotic spots between control and treated leaves,[3],12%
same,differences in fungal growth on the treated plates and control,[4],< 5%
same,% of infection,[5],10% and 10.63%
same,protection against the effects of bacterial infection,[6],fully protecting plants against the effects of bacterial infection
same,increase of the mass of the germ in comparison to control,[7],5%
same,growth differences between the control medium and the treated medium,[8],< 5%
